In patent publication US20080167246A1, “Ophthalmic and Contact Lens Solutions Containing Peptides as Preservative” (BioConcept Laboratories, priority 2003, published 2008):
Non-standard residues stand in square brackets, D forms with d. Residues, ends and D or L forms follow the SMILES beside them. No end group written: not given here.

Assays:
Assay type in all cases: cell-based
[1] = test system: Pseudomonas aeruginosa (ATCC 9027); test: Disinfection Efficacy antimicrobial assay (ISO 14729), P. aeruginosa; settings: for biocidal effect on P. aeruginosa (in words): 100 ug/mL; for lowest concentration resulting in complete kill of P. aeruginosa: 1 hour, tested at 100, 33.3, 10, 3.33 and 1 ug/mL
Protocol: (§1) Peptides were tested using a conventional Disinfection Efficacy antimicrobial assay (ISO 14729), commonly used in evaluating biocidal efficacy of preservatives for use in contact lens care solutions. Briefly, a known concentration of organisms are inoculated into the test solution, and allowed to incubate for a given amount of time, after which they are neutralized to inactivate the preservative. Samples are serially diluted and plated in duplicate onto petri plates onto which growth medium is poured. The plates are incubated at 35° C. (bacteria) or 25° C. (yeast and molds) for 48 hours. The average number of colony forming units is determined on countable plates (the dilution at which between 30 to 300 cfu/plate are observed, except when colonies are observed only on the −1 dilution plates). The log reduction resulting from exposure to the test solution is calculated based on the growth of positive controls plated simultaneously. Recovery controls, to confirm that the test solution is neutralized, and viability controls are also plated.
(§2) Method: The Disinfection Efficacy test was used with the following organisms: Staphylococcus aureus (ATCC 6538), Pseudomonas aeruginosa (ATCC 9027), Serratia marcesens (ATCC 13880), Candida albicans (ATCC 10231), and Fusarium solani (ATCC 36031). The peptides were diluted in water at a concentration of 100 ug/mL (adjusted for purity). Organism cultures were prepared to result in an inoculum concentration between 10^7 and 10^8 cfu/mL. The test solutions were inoculated for a 1 hour and a 3 hour exposure period, neutralized with DEB with 0.1% SLS added, and plated in duplicate.
(§3) Method: The Disinfection Efficacy test was used as in experiment 2 using Staphylococcus aureus and Pseudomonas aeruginosa. The peptides were diluted in water at concentrations of 100, 33.3, 10, 3.33, and 1 ug/mL. The test solutions were inoculated for 1 hour, neutralized, and plated in duplicate.

[2] = test system: Staphylococcus aureus (ATCC 6538); test: Disinfection Efficacy antimicrobial assay (ISO 14729), S. aureus; settings: for biocidal effect on S. aureus (in words): 100 ug/mL
Protocol: as §1, §2, §3

[3] = test system: Fusarium solani (ATCC 36031); test: Disinfection Efficacy antimicrobial assay (ISO 14729), F. solani; settings: Exp. 2, 1 hour exposure; for biocidal effect on F. solani (in words): 100 ug/mL
Protocol: as §1, §2

[4] = test system: Serratia marcesens (ATCC 13880); test: Disinfection Efficacy antimicrobial assay (ISO 14729), S. marcescens; settings: Exp. 2, 1 hour exposure; for biocidal effect on S. marcescens (in words): 100 ug/mL
Protocol: as §1, §2

[5] = test system: Candida albicans (ATCC 10231); test: Disinfection Efficacy antimicrobial assay (ISO 14729), C. albicans; settings: Exp. 2, 1 hour exposure; for biocidal effect on C. albicans (in words): 100 ug/mL
Protocol: as §1
Method: Candida albicans (ATCC 10231) stock cultures were incubated and prepared to result in cell suspensions containing between 10^7 and 10^8 cfu/mL. The Disinfection Efficacy test, as described above, was used, with the following modification: Since the standard Dey-Engley broth used to neutralize preservatives was not necessarily expected to neutralize the peptide, 0.1% sodium laurel sulfate (SLS) was added to the neutralization solution. Controls confirmed that this was effective in neutralizing the peptide test solution.
as §2, with “The test solutions were inoculated for a 1 hour and a 3 hour exposure period, neutralized with DEB with 0.1% SLS added, and plated in duplicate.” left out

[6] = test system: Staphylococcus aureus, Pseudomonas aeruginosa, Serratia marcesens, Candida albicans, Fusarium solani; test: Disinfection Efficacy test, all 5 organisms of Experiment 2; settings: Exp. 2; 100 ug/mL, one hour exposure
Protocol: as §1
Method: The Disinfection Efficacy test was used with the following organisms: Staphylococcus aureus (ATCC 6538), Pseudomonas aeruginosa (ATCC 9027), Serratia marcesens (ATCC 13880), Candida albicans (ATCC 10231), and Fusarium solani (ATCC 36031). The peptides were diluted in water at a concentration of 100 ug/mL (adjusted for purity). […]

[7] = Exp. 3, Conc. 3.33 μg/mL, T = 1 hr
[8] = Exp. 3, Conc. 33 μg/mL, T = 1 hr
[9] = Exp. 3, Conc. 100 μg/mL, T = 1 hr
[10] = Exp. 2, 100 ug/mL in water, 1 hour exposure

Row | Molecule | biocidal effect on P. aeruginosa (in words) ([1]; Exp. 2, 1 hour exposure) | biocidal effect on S. aureus (in words) ([2]; Exp. 2, 1 hour exposure) | biocidal effect on F. solani (in words) [3] | biocidal effect on S. marcescens (in words) [4] | biocidal effect on C. albicans (in words) [5] | lowest concentration resulting in complete kill of P. aeruginosa ([1]; Exp. 3) [µg/mL] | average cfu/mL [1, 7] [cfu/mL] | average cfu/mL [1, 8] [cfu/mL] | average cfu/mL [1, 9] [cfu/mL] | further results
1 | C[C@@H](N)C(=O)N[C@H](CCCCN)C(=O)N[C@H](CCCNC(=N)N)C(=O)N[C@H](Cc1c[nH]cn1)C(=O)N[C@H](Cc1c[nH]cn1)C(=O)NCC(=O)N[C@H](Cc1ccc(O)cc1)C(=O)N[C@H](CCCCN)C(=O)N[C@H](CCCNC(=N)N)C(=O)N[C@H](CCCCN)C(=O)N[C@H](Cc1ccccc1)C(=O)N[C@H](Cc1c[nH]cn1)C(N)=O [P-113D] (H-[dA][dK][dR][dH][dH]G[dY][dK][dR][dK][dF][dH]-NH2; N-terminus and C-terminus assumed) | effective | no effect | effective | no effect | effective | – | – | – | – | –
2 | AKRHHGYKRKFH-NH2 (C-terminus assumed) [P-113] | effective | no effect | effective | no effect | effective | 3.33 | 5.00E+00 | 0.00E+00 | 0.00E+00 | effectiveness against S. aureus (in words) ([2]; Exp. 3, 1 to 100 ug/mL, 1 hour): not effective
3 | FAKKFAKKFKKFAKKFAKFAFAF [D2A21] | – | – | – | – | – | 1 | 0.00E+00 | 0.00E+00 | 0.00E+00 | average cfu/mL [1, 10]: 0.00E+00 cfu/mL; average cfu/mL ([1]; Exp. 3, Conc. 1 μg/mL, T = 1 hr): 0.00E+00 cfu/mL; average cfu/mL ([1]; Exp. 3, Conc. 10 μg/mL, T = 1 hr): 0.00E+00 cfu/mL; average cfu/mL [2, 10]: 0.00E+00 cfu/mL; concentration achieving complete kill of S. aureus ([2]; Exp. 3, 1 hour, tested at 100, 33.3, 10, 3.33 and 1 ug/mL): 3.33 µg/mL; average cfu/mL [2, 7]: 0.00E+00 cfu/mL; average cfu/mL [2, 8]: 0.00E+00 cfu/mL; average cfu/mL [2, 9]: 0.00E+00 cfu/mL; average cfu/mL ([3]; 100 ug/mL in water): 0.00E+00 cfu/mL; average cfu/mL ([4]; 100 ug/mL in water): 0.00E+00 cfu/mL; average cfu/mL ([5]; 100 ug/mL in water): 0.00E+00 cfu/mL; kill of all 5 organisms (in words) [6]: complete kill
